Assay: Kinetic solubility of six ASDs in biorelevant media (SGF, FaSSIF, FeSSIF) at 37° C., 1 and 2 h
Format: physicochemical
Description: The three biorelevant media were: SGF, FaSSIF, and FeSSIF. These were prepared using procedure and FaSSIF/FeSSIF/FaSSGF Powder obtained from Biorelevant.com (https://biorelevant.com/learning_center/how-make-fassif/). A suspension of each ASD was prepared in SGF, FaSSIF, and FeSSIF and each was allowed to stir at 400 rpm. An aliquot of the supernatant was taken out at 1 and 2 hours, syringe filtered using a cellulose acetate filter ([…] pore size) and analyzed by HPLC. The solubilities of each ASD in SGF, FaSSIF, and FeSSIF are presented in Table 2A-8, Table 2A-9, and Table 2A-10, respectively. […] In addition, at 2 hours the remaining solids were analyzed by XRPD. […] These peaks correspond to residual FeSSIF buffer crystallizing on the ASD solids upon drying. (See Tables 2A-8, -9, and -10).

- 1 hr solubility in FeSSIF (n = 2) (37° C., 400 rpm): 5 µg/mL
- 2 hr solubility in FeSSIF (n = 2) (37° C., 400 rpm): 6 µg/mL
- XRPD after FeSSIF (solids remaining at 2 hours): Form I + one peak ~9°
Structure (SMILES): Cn1cc(C2=C(c3coc4ccc(F)cc34)C(=O)NC2=O)c2cc3c(cc21)OCO3 [NA]

Reference: patent US20250325517A1, “ORAL DOSAGE FORMS OF ELRAGLUSIB” (Actuate Therapeutics, Inc., priority 2022, published 2025)
